Results: paper PMC5956543, “Antimicrobial and antioxidant activities of triterpenoid and phenolic derivatives from two Cameroonian Melastomataceae plants: Dissotis senegambiensis and Amphiblemma monticola” (BMC Complementary and Alternative Medicine, 2018)
Values after ≈ are worked out from the molar mass of the structure shown. Like-named read-outs stand apart in the source and are kept apart here.

Assays:
[1] = system: C. tropicalis PK233; experiment: Broth microdilution antimicrobial assay (MIC/MMC); type: cell-based, Candida tropicalis; settings: for MIC: 37 °C; for MIC / MFC: 48 h
Protocol: (§1) The microorganisms used in this study include four bacterial (Staphylococcus aureus ATCC25923, methicillin sensitive S. aureus MSSA1, methicillin resistant S. aureus MRSA3 and methicillin resistant S. aureus MRSA4) and three yeast strains (Candida albicans ATCC10231, Candida tropicalis PK233 and Cryptococcus neoformans H99). These microorganisms were taken from our laboratory collection. The fungal and bacterial strains were grown at 37 °C and maintained on Sabouraud Dextrose Agar (SDA, Conda, Madrid, Spain) and nutrient agar (NA, Conda) slants respectively.
(§2) The inocula of bacteria and yeasts were prepared from overnight cultures as previously described. Absorbance was read spectrophotometrically at 530 nm and 600 nm for yeasts and bacteria respectively. The final concentrations of microbial suspensions were 2.5 × 10^5 cells/mL for yeasts and 10^6 CFU/mL for bacteria.
(§3) The antimicrobial activity was evaluated by determining the minimum inhibitory concentrations (MICs). MICs of extracts and compounds were determined by broth micro dilution. Each test sample was dissolved in 10% v/v aqueous dimethylsulfoxide (DMSO) to give a stock solution. This was serially diluted two-fold in Mueller-Hinton Broth (MHB) for bacteria and Sabouraud Dextrose Broth (SDB) for fungi to obtain a concentration range of 4096 to 0.25 μg/mL. Then, 100 μL of each sample concentration was added to respective wells (96-well micro plate) containing 90 μL of SDB/ MHB and 10 μL of inoculum to give final concentration ranges of 2048 to 4 μg/mL (for extracts) and 256 to 0.125 μg/mL (for compounds). Dilutions of nystatin (Sigma-Aldrich, Steinheim, Germany) and ciprofloxacin (Sigma-Aldrich, Steinheim, Germany) were used as positive controls for yeasts and bacteria respectively. Broth with 10 μL of DMSO was used as negative control. The cultured micro plates were covered; then, the contents of each well were mixed thoroughly using a plate shaker (Flow Laboratory, Germany) and incubated at 37 °C for 24 h (bacteria) and 48 h (yeasts) under shaking. After the incubation period, MICs were assessed visually and were taken as the lowest sample concentration at which there was no growth or virtually no growth. The lowest concentration that yielded no growth after the sub-culturing was considered as the minimum microbicidal concentrations (MMCs). All the tests were performed in triplicate.

[2] = DPPH free radical scavenging assay; settings: Fig. 3; vitamin C standard
Protocol: The free radical scavenging activity of extracts and compounds was evaluated according to described methods. The EC50 (μg/ml), which is the amount of sample necessary to inhibit by 50% the absorbance of free radical DPPH was calculated. Vitamin C was used as a standard control. All the analyses were carried out in triplicate.

[3] = Ferric reducing antioxidant power (FRAP) assay; settings: Perl's Prussian blue at 700 nm; Fig. 2; BHT positive control
Protocol: The FRAP was determined by the Fe^3+-Fe^2+ transformation in the presence of extracts and compounds as previously described. The Fe^2+ was monitored by measuring the formation of Perl’s Prussian blue at 700 nm. Butylated hydroxytoluene (BHT) was used as a positive control. All the tests were performed in triplicate.

[4] = system: S. aureus strains; experiment: Broth microdilution MIC, range over the S. aureus strains; type: cell-based; settings: Staphylococcus aureus; range over the four S. aureus strains
Protocol: as §1, §2
The antimicrobial activity was evaluated by determining the minimum inhibitory concentrations (MICs). MICs of extracts and compounds were determined by broth micro dilution. Each test sample was dissolved in 10% v/v aqueous dimethylsulfoxide (DMSO) to give a stock solution. […] After the incubation period, MICs were assessed visually and were taken as the lowest sample concentration at which there was no growth or virtually no growth. […]

[5] = system: S. aureus MSSA1; experiment: Broth microdilution antimicrobial assay (MIC/MMC); type: cell-based, Staphylococcus aureus; settings: for MIC / MBC: Staphylococcus aureus, 24 h; for MIC: 37 °C; for MBC: no growth after sub-culturing
Protocol: as §1, §2, §3

[6] = system: S. aureus ATCC25923; experiment: Broth microdilution antimicrobial assay (MIC/MMC); type: cell-based, Staphylococcus aureus; settings: for MIC / MBC: Staphylococcus aureus, 24 h; for MIC: 37 °C; for MBC: no growth after sub-culturing
Protocol: as §1, §2, §3

[7] = system: S. aureus MRSA3; experiment: Broth microdilution antimicrobial assay (MIC/MMC); type: cell-based, Staphylococcus aureus; settings: for MMC/MIC / MBC / MIC: S. aureus MRSA3; for MBC / MIC: Staphylococcus aureus, 24 h; for MBC: no growth after sub-culturing; for MIC: 37 °C
Protocol: as §1, §2, §3

[8] = system: S. aureus MRSA4; experiment: Broth microdilution antimicrobial assay (MIC/MMC); type: cell-based, Staphylococcus aureus; settings: for MMC/MIC / MBC / MIC: S. aureus MRSA4; for MBC / MIC: Staphylococcus aureus, 24 h; for MBC: no growth after sub-culturing; for MIC: 37 °C
Protocol: as §1, §2, §3

[9] = system: C. albicans ATCC10231; experiment: Broth microdilution antimicrobial assay (MIC/MMC); type: cell-based, Candida albicans; settings: for MIC: 37 °C, 48 h; for MMC: no growth after sub-culturing
Protocol: as §1, §2, §3

[10] = system: C. neoformans H99; experiment: Broth microdilution antimicrobial assay (MIC/MMC); type: cell-based, Cryptococcus neoformans; settings: for MIC: 37 °C; for MIC / MFC: 48 h
Protocol: as §1, §2, §3

[11] = system: bacterial and fungal strains; experiment: Broth microdilution MIC, range over all tested strains; type: cell-based; settings: range over all bacterial and fungal strains; read-out: MIC
Protocol: as §1, §2, §3

[12] = Candida tropicalis, read-out: MIC
[13] = Candida tropicalis, no growth after sub-culturing
[14] = Candida albicans, read-out: MIC
[15] = Cryptococcus neoformans, read-out: MIC
[16] = Cryptococcus neoformans, no growth after sub-culturing

| SMILES | MMC/MIC [1] | MIC [1, 12] [µg/mL] | MFC [1, 13] [µg/mL] | DPPH radical-scavenging activity (in words) [2] | reducing power (FRAP, in words) [3] | MMC/MIC [5] | MIC [5] [µg/mL] | MBC [5] [µg/mL] | MMC/MIC [6] | MIC [6] [µg/mL] | MBC [6] [µg/mL] | MBC [7] [µg/mL] | MIC [7] [µg/mL] | MBC [8] [µg/mL] | MIC [8] [µg/mL] | MIC [9, 14] [µg/mL] | MMC [9] [µg/mL] | MMC/MIC [10] | MIC [10, 15] [µg/mL] | MFC [10, 16] [µg/mL] | further results |
| --- | --- | --- | --- | --- | --- | --- | --- | --- | --- | --- | --- | --- | --- | --- | --- | --- | --- | --- | --- | --- | --- |
| COc1cc2c(=O)oc3c(OC)c(O)cc4c(=O)oc(c1O)c2c34 [Compound 7, 3,4′-di-O-methylellagic acid] | 2 | 32 (≈ 96.9 µM) | 64 (≈ 194 µM) | highest EC50 | lowest reducing power | 1 | 16 (≈ 48.4 µM) | 16 (≈ 48.4 µM) | 1 | 32 (≈ 96.9 µM) | 32 (≈ 96.9 µM) | 32 (≈ 96.9 µM) | 16 (≈ 48.4 µM) | 64 (≈ 194 µM) | 32 (≈ 96.9 µM) | 32 (≈ 96.9 µM) | 64 | 1 | 32 (≈ 96.9 µM) | 32 (≈ 96.9 µM) | MIC [4]: 16 to 32 µg/mL (≈ 48.4 to 96.9 µM); activity against methicillin-resistant S. aureus (in words) ([7]; MRSA3): prominent activity; MMC/MIC [7]: 2; activity against methicillin-resistant S. aureus (in words) ([8]; MRSA4): prominent activity; MMC/MIC [8]: 2; MMC/MIC [9]: 2; MIC [11]: 16 to 32 µg/mL (≈ 48.4 to 96.9 µM) |
| COC(=O)c1cc(O)c(O)c(O)c1-c1c(C(=O)OC)cc(O)c(O)c1O [Compound 8, dimethyl 4,4′,5,5′,6,6′-hexahydroxybiphenyl-2,2′-dicarboxylate] | 1 | 16 (≈ 43.7 µM) | 16 (≈ 43.7 µM) | lowest EC50 | highest reducing power | 1 | 32 (≈ 87.4 µM) | 32 (≈ 87.4 µM) | 2 | 32 (≈ 87.4 µM) | 64 (≈ 175 µM) | 128 (≈ 349 µM) | 64 (≈ 175 µM) | 256 (≈ 699 µM) | 128 (≈ 349 µM) | 128 (≈ 349 µM) | > 256 | 1 | 32 (≈ 87.4 µM) | 32 (≈ 87.4 µM) | MMC/MIC [7]: 2; MMC/MIC [8]: 2; MIC [11]: 8 to 128 µg/mL (≈ 21.8 to 349 µM) |
| C=C(C)[C@@H]1CC[C@]2(C)CC[C@]3(C)[C@H](CC[C@@H]4[C@@]5(C)CC[C@H](O)C(C)(C)[C@@H]5CC[C@]43C)[C@@H]12 [Compound 9, lupeol] |  | 256 (≈ 600 µM) | > 256 | not active | not active |  | 256 (≈ 600 µM) | > 256 |  | 256 (≈ 600 µM) | > 256 | > 256 | > 256 | > 256 | > 256 | > 256 |  |  | 256 (≈ 600 µM) | > 256 |  |
| CC1(C)CC[C@]2(C(=O)O)CC[C@]3(C)C(=CC[C@@H]4[C@@]5(C)CC[C@H](O)C(C)(C)[C@@H]5CC[C@]43C)[C@@H]2C1 [Compound 13, oleanolic acid] |  |  |  | not active | not active |  |  |  |  |  |  |  |  |  |  |  |  |  |  |  |  |
| C[C@@H]1[C@H](O)[C@@H](C)/C=C/C=C/CC/C=C/C=C/C=C/C=C/C(O[C@H]2O[C@H](C)[C@@H](O)[C@H](N)[C@@H]2O)CC2O[C@](O)(CC(O)C(O)CCC(O)CC(O)CC(O)CC(=O)O[C@H]1C)CC(O)C2C(=O)O (stereo partly shown) [nystatin, reference compound] | 2 |  |  |  |  |  |  |  |  |  |  |  |  |  |  |  | 2 | 1 |  |  | MIC [1]: 0.5 µg/mL (≈ 0.54 µM); MMC ([1]; no growth after sub-culturing): 1 µg/mL; MMC/MIC [9]: 1; MIC [9]: 2 µg/mL (≈ 2.16 µM); MIC [10]: 1 µg/mL (≈ 1.08 µM); MMC ([10]; no growth after sub-culturing): 1 µg/mL |
